From patent US11071731B2, “Allosteric modulators of the mu opioid receptor” (Chiromics, LLC, priority 2017, dated 2021)

Columns and labels:
[1] = target: T1, mu opioid receptor (MOR) (Homo sapiens, UniProt P35372); test: PathHunter β-arrestin recruitment assay, PAM mode with EC20 endomorphin-1; type: cell-based
Summary of the method: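 β-Arrestin recruitment to the receptor was tracked by chemiluminescent β-galactosidase activity from complementing fragments (ED on receptor, EA on β-arrestin). Per-compound outputs were EC50 and percent maximal response.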

[2] = target: T1, mu opioid receptor (MOR); test: Hit Hunter cAMP signaling assay (adenylyl cyclase inhibition), PAM mode with EC20 endomorphin-1; type: cell-based
[3] = maximal response for β-arrestin recruitment
[4] = β-arrestin recruitment, read-out: β-arr. EC50
[5] = cAMP EC50, adenylyl cyclase inhibition
[6] = maximal response for adenylyl cyclase inhibition
[7] = adenylyl cyclase inhibition, read-out: cAMP EC50

T1 sequence (P35372 whole entry, the tested form may be a part): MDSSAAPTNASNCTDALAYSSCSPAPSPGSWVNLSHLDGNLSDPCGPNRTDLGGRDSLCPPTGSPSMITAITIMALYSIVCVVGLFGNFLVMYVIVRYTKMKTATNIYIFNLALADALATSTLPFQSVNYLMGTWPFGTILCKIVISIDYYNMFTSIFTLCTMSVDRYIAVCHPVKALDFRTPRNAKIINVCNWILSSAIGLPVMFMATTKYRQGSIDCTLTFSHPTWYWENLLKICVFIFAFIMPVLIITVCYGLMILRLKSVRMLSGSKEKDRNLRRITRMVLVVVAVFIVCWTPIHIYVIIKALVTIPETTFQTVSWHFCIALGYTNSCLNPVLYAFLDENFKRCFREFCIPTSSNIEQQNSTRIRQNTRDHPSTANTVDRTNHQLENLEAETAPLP

SMILES | β-arr Max. Resp. [1, 3] | EC50 [1, 4] [nM] | EC50 [2, 5] [nM] | cAMP Max. Resp. [2, 6] | EC50 [2, 7] [nM] | β-arr Max. Resp. ([1]; maximal response, β-arrestin recruitment) | cAMP Max. Resp. ([2]; maximal response, adenylyl cyclase inhibition) | β-arrestin Max Response ([1]; β-arrestin recruitment, activity switching by MOR PAMs) | EC50 ([1]; β-arrestin recruitment, activity switching by MOR PAMs, read-out: β-arrestin EC50) [nM] | cAMP Max Resp. ([2]; adenylyl cyclase inhibition, activity switching by MOR PAMs) | EC50 ([2]; adenylyl cyclase inhibition, activity switching by MOR PAMs, read-out: cAMP EC50) [nM]
Fc1cc(C2C3CCC(C3)N2c2nc(Cl)ncc2F)cc(C(F)(F)F)c1 (centres unmarked) [compound 139] | F (F represents a maximal response of > 60%) | > 2100 | > 2100 | E (E represents a maximal response of 40-60%) |  |  |  |  |  |  | 
COc1ccc(C2CCCCN2S(=O)(=O)c2ccc(Cl)cc2)cc1C (racemic) [compound 68] | F (F represents a maximal response of > 60%) | > 2100 |  | E (E represents a maximal response of 40-60%) | 700 to 2100 |  |  |  |  |  | 
Fc1ccc(C2CCCCN2c2nc(Cl)ncc2F)cc1C(F)(F)F (single isomer, unassigned) [compound 422] |  | < 700 | < 700 |  |  | D (D represents a maximal response of < 40%) | D (D represents a maximal response of < 40%) |  |  |  | 
Fc1ccc(C(F)(F)F)cc1C1CCCCN1c1ccnc(Cl)n1 (centres unmarked) [compound 403] | D (D represents a maximal response of < 40%) | < 700 | < 700 | D (D represents a maximal response of < 40%) |  |  |  |  |  |  | 
O=S(=O)(c1ccc(Cl)cc1)N1CCCCC1c1ccnc(C(F)(F)F)c1 (racemic) [compound 57] | F (F represents a maximal response of > 60%) | > 2100 |  | E (E represents a maximal response of 40-60%) | > 2100 |  |  | F (F represents a maximal response of >60%) | > 2100 | E (E represents a maximal response of 40-60%) | > 2100
Fc1cccc(C2CCCCN2c2cc(Cl)ncc2F)n1 (centres unmarked) [compound 262] | E (E represents a maximal response of 40-60%) | > 2100 | > 2100 | D (D represents a maximal response of < 40%) |  |  |  |  |  |  | 
CC1CCN(S(=O)(=O)c2ccc(Cl)cc2)C1c1ccc(F)cc1 (mixture of isomers) [Compound 95] | F (F represents a maximal response of > 60%) | > 2100 |  | D (D represents a maximal response of < 40%) | > 2100 |  |  |  |  |  | 
CCC1CCCN(c2nc(Cl)ncc2F)C1c1ccc(OC)c(Br)c1 (centres unmarked) [compound 248] | F (F represents a maximal response of > 60%) | > 2100 |  | E (E represents a maximal response of 40-60%) | > 2100 |  |  |  |  |  | 
COc1cnc(C2CCCCN2c2nc(Cl)ncc2F)nc1Cl (centres unmarked) [compound 379] | D (D represents a maximal response of < 40%) | < 700 | < 700 | D (D represents a maximal response of < 40%) |  |  |  |  |  |  | 
N#Cc1cc(C2CCCCN2S(=O)(=O)c2ccc(Cl)cc2)ccc1F (racemic) [compound 58] | F (F represents a maximal response of > 60%) | > 2100 |  | D (D represents a maximal response of < 40%) | > 2100 |  |  |  |  |  | 
Cc1cc(C2CCCCN2S(=O)(=O)c2ccc(Cl)cc2)ccn1 (racemic) [compound 77] | F (F represents a maximal response of > 60%) | > 2100 |  | D (D represents a maximal response of < 40%) | > 2100 |  |  |  |  |  | 
COc1ccc(C2CCCCN2c2cccc(C(F)(F)F)n2)cc1Br (centres unmarked) [compound 227] | F (F represents a maximal response of > 60%) | > 2100 | > 2100 | F (F represents a maximal response of > 60%) |  |  |  |  |  |  | 
Fc1cc(C2CCC(OCCN3CCOCC3)CN2c2nc(Cl)ncc2F)cc(C(F)(F)F)c1 (centres unmarked) [compound 304] | D (D represents a maximal response of < 40%) | > 2100 |  | D (D represents a maximal response of < 40%) | > 2100 |  |  |  |  |  | 
O=C1CCN(c2nc(Cl)ncc2F)C(c2ccc(F)c(Br)c2)C1 (centres unmarked) [compound 240] | D (D represents a maximal response of < 40%) | > 2100 | > 2100 | E (E represents a maximal response of 40-60%) |  |  |  |  |  |  | 
Fc1cc(Cl)cc(C2CCCCN2c2nc(Cl)ncc2F)c1 (single isomer, unassigned) [compound 404] | D (D represents a maximal response of < 40%) | < 700 | < 700 | D (D represents a maximal response of < 40%) |  |  |  |  |  |  | 
O=S(=O)(c1ccc(Cl)cc1)N1CCCCC1c1ccc(Cl)c(C(F)(F)F)c1 (single isomer, unassigned) [compound 69] | F (F represents a maximal response of > 60%) | > 2100 |  | D (D represents a maximal response of < 40%) | 700 to 2100 |  |  |  |  |  | 
